The values below come from US20030087956A1, “Urea compounds as inhibitors for vla-4” (priority 2000, published 2003).

The target in the assay is T1, integrin α4β1 (Homo sapiens, UniProt P05556+P13612).
T1 construct: expressed on the MOLT-4 cell membrane; host or cells: MOLT-4 human T-lymphoblastic leukaemia cells
Description: MOLT-4 cell/Fibronectin adhesion assay. The format is cell-based. Particulars: MOLT-4 cells on fibronectin-coated plates, 2 h at 37° C., acid phosphatase readout; read-out: inhibitor of MOLT-4 cell adhesion to fibronectin (concentration at which compound is an inhibitor). An excerpt:
MOLT-4 cells—human T-lymphoblastic leukaemia cells (European Collection of Animal Cell Cultures, Porton Down)
Fibronectin—purified from human plasma by gelatin-sepharose affinity chromatography according to the methods described in E. Nengvall, E. Ruoslahti, Int. J. Cancer, 1977, 20, pages 1-5 and J. Forsyth et al, Methods in Enzymology, 1992, 215, pages 311-316).
1.1.1 MOLT-4 cell/Fibronectin adhesion assay.
The MOLT-4 cell/fibronectin adhesion assay was used to investigate the interaction of the integrin α4-β1expressed on the MOLT-4 cell membrane with fibronectin. Polystyrene 96 well plates were coated overnight at 4° C. with fibronectin, 100 μl of 10 μg/ml in PBS. Non-specific adhesion sites were blocked by adding 100 μl BSA, 20 mg/ml. After incubating for 1 h at room temperature, the solutions were aspirated. […] Adherent cells were quantified by a colorimetric acid phosphatase assay. […] After incubation for 1 h at 37° C., 50 μl sodium hydroxide (1M) was added to each well and the absorbance 405 nm was measured on a microplate spectrophotometer. Compounds which inhibited adhesion gave a lower absorbance reading. […] Percentage inhibition was calculated with respect to total (no inhibitor) and non-specific (no fibronectin) standards on each plate.

T1 sequence (P13612 34-1032): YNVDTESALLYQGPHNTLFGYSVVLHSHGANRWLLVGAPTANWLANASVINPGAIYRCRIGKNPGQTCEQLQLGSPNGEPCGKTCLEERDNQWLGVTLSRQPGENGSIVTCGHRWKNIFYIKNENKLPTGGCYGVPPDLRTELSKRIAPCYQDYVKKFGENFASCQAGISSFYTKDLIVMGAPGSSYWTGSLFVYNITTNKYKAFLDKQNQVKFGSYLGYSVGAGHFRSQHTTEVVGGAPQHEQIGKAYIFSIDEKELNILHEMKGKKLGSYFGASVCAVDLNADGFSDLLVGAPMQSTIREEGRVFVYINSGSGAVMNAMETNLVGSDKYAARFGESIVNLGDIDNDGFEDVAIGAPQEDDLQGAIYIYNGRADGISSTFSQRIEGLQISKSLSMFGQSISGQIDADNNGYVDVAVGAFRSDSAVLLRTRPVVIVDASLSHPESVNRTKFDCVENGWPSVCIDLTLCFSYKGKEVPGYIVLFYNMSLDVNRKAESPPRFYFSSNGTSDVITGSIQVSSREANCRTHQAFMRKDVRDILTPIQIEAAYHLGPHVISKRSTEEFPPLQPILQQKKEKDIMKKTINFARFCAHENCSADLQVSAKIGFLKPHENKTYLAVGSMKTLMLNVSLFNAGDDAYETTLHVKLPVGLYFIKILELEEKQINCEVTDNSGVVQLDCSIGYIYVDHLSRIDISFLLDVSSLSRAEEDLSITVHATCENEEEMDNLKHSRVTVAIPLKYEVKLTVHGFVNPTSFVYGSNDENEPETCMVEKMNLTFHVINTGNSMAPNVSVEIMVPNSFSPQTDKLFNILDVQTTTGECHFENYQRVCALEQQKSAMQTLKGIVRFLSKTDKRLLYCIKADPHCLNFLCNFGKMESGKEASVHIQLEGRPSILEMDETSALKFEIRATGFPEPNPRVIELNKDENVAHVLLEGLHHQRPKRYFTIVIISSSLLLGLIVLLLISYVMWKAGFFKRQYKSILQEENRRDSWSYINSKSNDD
T1 sequence (P05556 21-798): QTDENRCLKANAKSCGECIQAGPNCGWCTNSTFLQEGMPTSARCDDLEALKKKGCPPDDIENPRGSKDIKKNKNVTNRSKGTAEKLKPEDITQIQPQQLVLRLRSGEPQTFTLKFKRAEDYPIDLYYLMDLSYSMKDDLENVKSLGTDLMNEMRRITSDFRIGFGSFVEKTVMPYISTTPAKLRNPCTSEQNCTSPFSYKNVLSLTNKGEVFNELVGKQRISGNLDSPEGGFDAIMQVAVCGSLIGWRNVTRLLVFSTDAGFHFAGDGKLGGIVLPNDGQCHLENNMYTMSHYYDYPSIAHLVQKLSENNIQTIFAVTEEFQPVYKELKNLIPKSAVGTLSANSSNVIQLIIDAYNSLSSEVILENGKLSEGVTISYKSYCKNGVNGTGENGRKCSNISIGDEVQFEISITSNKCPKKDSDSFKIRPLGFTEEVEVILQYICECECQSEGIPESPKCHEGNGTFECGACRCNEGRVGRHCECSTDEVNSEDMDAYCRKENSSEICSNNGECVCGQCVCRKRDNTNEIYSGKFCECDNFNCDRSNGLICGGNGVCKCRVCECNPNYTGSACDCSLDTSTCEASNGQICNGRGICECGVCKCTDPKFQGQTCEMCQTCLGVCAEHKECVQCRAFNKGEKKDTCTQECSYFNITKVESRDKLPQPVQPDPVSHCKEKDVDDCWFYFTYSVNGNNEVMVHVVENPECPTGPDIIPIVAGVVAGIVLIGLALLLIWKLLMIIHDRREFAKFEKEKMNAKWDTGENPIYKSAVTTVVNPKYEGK

As to `Cc1ccccc1NC(=O)Nc1ccc(CC(=O)Nc2ccc(OCCN3CCCCC3)c(OCCCC(=O)O)c2)cc1` [Compound 1], the IC50 worked out at 87 nM.
Under `Cc1ccccc1NC(=O)Nc1ccc(CC(=O)Nc2ccc(OCCCN3CCCC3)c(OCCCC(=O)O)c2)cc1` [Compound 2] stands 84 nM.
